One data set relates to S. aureus (ATCC 12600). The experiment in a line: Minimal microbicidal concentration (MMC99) assay. In kind it is cell-based, Staphylococcus aureus. How it is done:
(§1) All the synthesised peptides were tested for their in vitro microbicidal activity against S. aureus (American Type Culture Collection (ATCC) 12600) and P. aeruginosa (ATCC 15442) using a minimal microbicidal concentration (MMC) assay as previously described (Haversen et al. [2010]). Bacteria were cultured in 3.7% brain heart infusion (BHI) broth (Difco, BD Diagnostics, Franklin Lakes, NJ) on a shaker at 250 rpm overnight at 37°C. The culture was diluted 1:10 in fresh 3.7% BHI and incubated for two additional hours to reach log-phase growth. The bacteria were pelleted by centrifugation at 900 × g and suspended in 0.037% BHI to a concentration of 10^7 CFU/mL, estimated by measuring optical density at 600 nm (OD600). To investigate the influence of physiological conditions on microbicidal effect of the peptides, four different assay media were used: 0.037% BHI, 0.037% BHI supplemented with 85 or 150 mM sodium chloride (NaCl), and 50% heat inactivated simulated wound fluid (h.i. SWF) composed of a 50:50 mixture of 0.1% peptone (Oxoid, Basingstoke, UK) in 150 mM NaCl and fetal bovine serum (FBS; PAA Laboratories GmbH, Pasching, Austria), diluted two times in ultra pure water. The peptides were serially diluted by twofold steps from 200 to 1.56 mg/L in the assay media used, and 100 μL of the peptide solutions were mixed with 5 μL bacterial suspensions in a 96 well plate (Nunc, Roskilde, Denmark) and incubated at 37°C for two hours. An aliquot of 5 μL from each well was aspirated and added as drops onto blood agar plates (Columbia agar; Oxoid, Basingstoke, UK) supplemented with 5% defibrinated horse blood (Swedish National Veterinary Institute (SVA), Uppsala, Sweden), and the plates were incubated overnight at 37°C. All samples were processed as duplicates. The minimal test compound concentration causing ≥99% reduction of bacteria was defined as the MMC99. The concentration of the bacterial suspension used in the assay was confirmed by viable count estimation on blood agar plates (Oxoid).
(§2) CEN1 HC was further screened for microbicidal activity against a panel of microbial strains using the MMC99 assay, as described above, except using only two different assay media; 0.037% BHI and 50% h.i. SWF. The following microbial strains were tested for sensitivity: S. aureus (ATCC 12600), MRSA (ATCC 33591), Staphylococcus epidermidis (ATCC 12228), Streptococcus pyogenes (ATCC 12344), Propionibacterium acnes (ATCC 6919) Escherichia coli (ATCC 11775), P. aeruginosa (ATCC 15442), Klebsiella pneumoniae (Culture collection, University of Gothenburg (CCUG) 59413, clinical isolate resistant to penicillins, cephalosporins, aztreonam and carbapenems, with the reference strain ATCC 13883), Acinetobacter baumannii (CCUG 58437, clinical isolate resistant to tobramycin, trimsulfa, ciprofloxacin, cefotaxim, ceftazidim, meropenem, pipera/tazobactam, with the reference strain ATCC 19606) and the yeast strain Candida albicans (ATCC 64549). Mupirocin (GlaxoSmithKline) and fusidic acid (LEO Pharma) were used as comparative control antibiotics.

The conditions of data set [1]: synthesis and antimicrobial testing of the different monomers; ref Li et al. [2010]; cited from earlier work. The text has this: Invertebrates are proving to be a rich source of AMPs, possibly because of their more pronounced reliance on innate immune functions in their defence against microbial pathogens compared to vertebrates. Many of the peptides isolated from marine species are structurally unique, display significant biological activities and are therefore expected to be useful drug leads (Sperstad et al. [2011]). In a previous study, we detected broad-spectrum antibacterial activity in coelomocyte (blood cell) extracts of the green sea urchin, S. droebachiensis (Haug et al. [2002]). Subsequently, an AMP named cen ...

Data set [2] relates to TNF-α secretion from THP-1 cells. The experiment in a line: Inhibition of TNF-α secretion from LPS-stimulated THP-1 derived macrophages (ELISA). Format: cell-based, human. To be noted: PMA-differentiated THP-1 cells, LPS 0.1 ng/mL, peptide added 30 min after LPS, 6 h, triplicate, IC50 ± SEM, 4-parameter fit (Origin). As for the experimental part: The human monocytic cell line THP-1 (ATCC TIB-202) was cultured in RPMI 1640 medium (PAA Laboratories GmbH) supplemented with 10% FBS (PAA Laboratories GmbH), 1 mM sodium pyruvate (Sigma-Aldrich, St. Louis, MO), and 20 mM 4-(2-hydroxyethyl)-1-piperazineethanesulfonic acid (HEPES; PAA Laboratories GmbH). The cell density was adjusted to 10^6 cells/mL and 100 μL of the cell suspension was added to each well of 96 well plates (Sarstedt, Nümbrecht, Germany). The cells were treated with 10 ng/mL phorbol 12-myristate 13-acetate (PMA; Sigma-Aldrich) to differentiate the monocytes into macrophage-like cells. After 48 h, the cells were stimulated by adding 0.1 ng/mL LPS into the medium specified above, except that 10% FBS was replaced with 5% h.i. FBS. The LPS concentration used was selected based on in vitro titration experiments to give a close to maximum release of cytokines into the cell culture medium over a period of six hours (data not shown). The indicated concentrations of the peptides were added 30 min after addition of LPS. After six hours of incubation, the plates were centrifuged for six minutes at 400 × g and the supernatants were collected and kept frozen at −20°C until analysed for TNF-α and IL-6 production. The cytokine levels were analysed using enzyme-linked immunosorbent assay (ELISA; R&D Systems, Minneapolis, MN).

Data set [3] has as its system P. aeruginosa (ATCC 15442). Briefly: Minimal microbicidal concentration (MMC99) assay. In kind it is cell-based, Pseudomonas aeruginosa. How it is done: as §1, §2
A further data set concerns MRSA (ATCC 33591). Format: in vivo. To be noted: rat excision wound model (MRSA or P. aeruginosa infected), topical application, experimental period. The text has this: The ability of CEN1 HC and CEN1 HC (Ser) to reduce bacterial counts was estimated in an excision wound model in rat designed based on previously published studies (Gisby and Bryant [2000]; McRipley and Whitney [1976]; Rittenhouse et al. [2006]; Saymen et al. [1972]). Briefly, female Sprague–Dawley rats (200–250 g, Charles River Laboratories, Sulzfeldt, Germany) were housed at the Laboratory of Experimental Biomedicine, Gothenburg, Sweden. They were kept in a 12-h light–dark cycle and were cared for in accordance with regulations for the protection of laboratory animals. All animal experiments were performed after prior approval from the local Ethics Committee for Animal Studies at the Administrative Court of Appeals in Gothenburg, Sweden. The rats were acclimatised in cages for a minimum of five days before surgery, with four rats in each cage. They had free access to water and pellets (Lab For, Lantmännen, Sweden). The rats were anaesthetised during the whole experiment and the anaesthesia was induced by an intra-peritoneal injection of a mixture of fentanyl (272 μg/kg; B. Braun Melsungen AG, Melsungen, Germany) and medetomidine hydrochloride (545 μg/kg; Domitor, Orion Pharma Animal Health AB, Sollentuna, Sweden). The backs of the rats were shaved and swabbed with 70% chlorhexidine alcohol (Fresenius Kabi AB, Uppsala, Sweden). […] Plates containing 30–300 CFU were counted. […]

Setting [4] is: Table 2 screen, medium 0.037% BHI + 85 mM NaCl, 2 h at 37°C, up to 200 mg/L, duplicates, maximum of at least two independent experiments.
[5] abbreviates: Table 2 screen, medium 0.037% BHI + 150 mM NaCl, 2 h at 37°C, up to 200 mg/L, duplicates, maximum of at least two independent experiments.
Setting [6] is: Table 2 screen, medium 50% heat inactivated simulated wound fluid, 2 h at 37°C, up to 200 mg/L, duplicates, maximum of at least two independent experiments.

“And” between values parts separate entries of the source, which are not always exact repeats. Identical values can stand only once. No end group written: not given here.

Turning to “GW(Br)FKKTFHKVSHAVKSGIHAGQRGCSALGF [CEN1 HC-Br, heavy chain of centrocin 1, 30 residues, brominated tryptophan in position 2]”, the “S. aureus MMC99, 0.037% BHI + 85 mM NaCl” value with S. aureus (ATCC 12600) (setting [4]) is 25 mg/L. Also, the “S. aureus MMC99, 0.037% BHI + 150 mM NaCl” value in the data set on S. aureus (ATCC 12600) (setting [5]) is 50 mg/L. Moreover, in the data set on S. aureus (ATCC 12600) (Table 2 screen, medium 0.037% BHI, ≥99% reduction of bacteria, 2 h at 37°C, tested up to 200 mg/L, duplicates, maximum value from at least two independent experiments), the “S. aureus MMC99, 0.037% BHI” value is listed as 25 mg/L. In addition, the “S. aureus MMC99, 50% SWF” value in the data set on S. aureus (ATCC 12600) (setting [6]) was 25.0 to 50.0 mg/L and 50 mg/L. The “S. aureus MMC99, 0.037% BHI with 85 mM or 150 mM NaCl” value in the data set on S. aureus (ATCC 12600) (text summary over both NaCl concentrations of Table 2a) was 25.0 to 50.0 mg/L. In addition, the “Antimicrobial activity of the synthesised monomers of centrocin 1” value in data set [1] is reported as “equally active as the original dimeric peptide”. Also, the “IC50, TNF-α secretion” value in data set [2] is roughly 4.0 µg/mL. Besides, in data set [3] (setting [4]), the “P. aeruginosa MMC99, 0.037% BHI + 85 mM NaCl” value amounted to 12.5 mg/L. Further, in data set [3] (setting [5]), the “P. aeruginosa MMC99, 0.037% BHI + 150 mM NaCl” value was found to be 25 mg/L. Moreover, in data set [3] (Table 2 screen, medium 0.037% BHI, 2 h at 37°C, up to 200 mg/L, duplicates, maximum of at least two independent experiments), the “P. aeruginosa MMC99, 0.037% BHI” value amounted to 25 mg/L. For the same substance, the “P. aeruginosa MMC99, 50% SWF” value in data set [3] (setting [6]) is 100.0 mg/L and 100 mg/L. Further, in data set [3] (text summary over both NaCl concentrations of Table 2b, compared to 0.037% BHI only), the “P. aeruginosa MMC99, 0.037% BHI with 85 mM or 150 mM NaCl” value is “no reduction in effect”.

Consider “GWFKKTFHKVSHAVKSGIHAGQRGCSALGF [CEN1 HC]”, for which the “Animal death or local reactions in connection to the application of the test article” value with MRSA (ATCC 33591) is “No animal death or local reactions”.

The values are drawn from PMC3561256, “Anti-infectious and anti-inflammatory effects of peptide fragments sequentially derived from the antimicrobial peptide centrocin 1 isolated from the green sea urchin, Strongylocentrotus droebachiensis” (AMB Express, 2012).
